Our source for the IC50 values is patent publication US20250145589A1, “PYRIDINE DERIVATIVE AND USE THEREOF” (SICHUAN HUIYU PHARMACEUTICAL CO., LTD., priority 2021, published 2025).

One may read the IC50 as the midpoint of a concentration-inhibition curve.

The target of assay [1] is PI3Kα (Homo sapiens (Human), UniProt P42336). The assay is described as follows: Inhibition of PI3Kα efficacy assay (ADP-Glo kinase assay). The assay is classed as biochemical. The settings on record: read-out: PI3Kα inhibitory activity (IC50). The procedure, abridged:
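Eight five-fold dilutions of compound (2 mM DMSO stock) tested; kinase reaction with PI and ATP ran 60 min at RT, followed by ADP-Glo and detection reagent steps of 40 min each. Four-parameter logistic fitting gave IC50 values.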
A general note: In ADP-Glo the light output rises with the ADP produced.

Assay [2] deals with PI3Kδ (Homo sapiens (Human), UniProt O00329). The assay is described as follows: Inhibition of PI3Kδ efficacy assay (ADP-Glo kinase assay). Type of assay: biochemical. Conditions: read-out: PI3Kδ inhibitory activity (IC50). As to the method:
Test Example 2: Inhibition of PI3Kδ Efficacy assay The ADP-Glo™ kinase assay was used to assess the inhibition of PI3Kδ with our compounds. The utilized proteins and assay reagents were obtained from the ADP-Glo™ Kinase Assay Kit (Promega). Initially, a 2 mM stock solution of the test compound (dissolved in DMSO) was serially diluted in five-fold concentrations using DMSO to obtain eight working solutions 1 (200×) Subsequently, each of the eight working solutions 1 was further diluted in a 20-fold gradient by adding 5 μL into 95 μL of ddH2O, resulting in eight working solutions 2 (10×). […] Subsequently, 2 μL of 2.5×PI and ATP solution mixture were added to each well, mixed, and incubated at RT for 60 minutes. Then, 5 μL of ADP-Glo (containing 10 mM MgCl2) reagent was added to each well, mixed, and incubated at RT for 40 minutes. Finally, 10 μL of the Kinase Detection Reagent was added to each well, mixed, and incubated at RT for 40 minutes. Luminescence values were recorded using a multi-mode microplate reader with luminescence channel settings, and the inhibitory rate was calculated using the following formula: [formula] Data were analyzed using GraphPad Prism with log(inhibitor) vs. response—Variable Slope(four parameters) fitting calculations for IC50 values.

For assay [3], the system named is NCI-H358 cells (KRAS G12C mutant). In words: NCI-H358 cell proliferation inhibition (CellTiter-Glo). Type of assay: cell-based. The settings on record: H358 cells (G12C mutation), 3 days, Table 6, read-out: NCI-H358 (IC50). In general terms: In ATP-based viability assays light output follows the ATP content of the culture.

Like-named read-outs stand apart in the source and are kept apart here.

PI3Kδ, sequence (O00329 whole entry): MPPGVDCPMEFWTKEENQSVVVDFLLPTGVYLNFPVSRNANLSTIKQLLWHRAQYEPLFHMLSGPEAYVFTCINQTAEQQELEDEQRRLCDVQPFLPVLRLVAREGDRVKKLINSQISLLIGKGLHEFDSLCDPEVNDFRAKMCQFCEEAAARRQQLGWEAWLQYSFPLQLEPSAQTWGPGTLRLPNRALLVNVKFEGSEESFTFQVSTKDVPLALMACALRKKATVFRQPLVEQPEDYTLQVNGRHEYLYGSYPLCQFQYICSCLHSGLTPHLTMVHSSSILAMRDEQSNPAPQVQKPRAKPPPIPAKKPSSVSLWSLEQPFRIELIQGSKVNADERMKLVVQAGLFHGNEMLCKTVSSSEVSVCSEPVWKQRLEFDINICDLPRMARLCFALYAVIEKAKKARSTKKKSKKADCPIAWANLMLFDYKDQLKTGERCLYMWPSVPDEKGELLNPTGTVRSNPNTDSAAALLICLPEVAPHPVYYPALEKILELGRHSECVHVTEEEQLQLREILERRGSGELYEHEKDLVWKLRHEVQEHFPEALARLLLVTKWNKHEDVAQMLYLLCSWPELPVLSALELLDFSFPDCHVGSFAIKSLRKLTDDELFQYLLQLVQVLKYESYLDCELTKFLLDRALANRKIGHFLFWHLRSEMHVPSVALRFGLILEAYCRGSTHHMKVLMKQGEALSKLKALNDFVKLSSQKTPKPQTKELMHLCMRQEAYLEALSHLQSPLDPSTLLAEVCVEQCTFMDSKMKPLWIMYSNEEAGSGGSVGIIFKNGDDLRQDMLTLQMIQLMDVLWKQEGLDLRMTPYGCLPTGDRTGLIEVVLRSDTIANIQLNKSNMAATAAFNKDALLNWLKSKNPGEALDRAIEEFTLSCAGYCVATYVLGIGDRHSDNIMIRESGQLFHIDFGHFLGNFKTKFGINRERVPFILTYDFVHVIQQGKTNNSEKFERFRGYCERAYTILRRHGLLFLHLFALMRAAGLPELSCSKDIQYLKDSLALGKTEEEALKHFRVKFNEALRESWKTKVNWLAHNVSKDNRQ
PI3Kδ, sequence (P27986 whole entry partner): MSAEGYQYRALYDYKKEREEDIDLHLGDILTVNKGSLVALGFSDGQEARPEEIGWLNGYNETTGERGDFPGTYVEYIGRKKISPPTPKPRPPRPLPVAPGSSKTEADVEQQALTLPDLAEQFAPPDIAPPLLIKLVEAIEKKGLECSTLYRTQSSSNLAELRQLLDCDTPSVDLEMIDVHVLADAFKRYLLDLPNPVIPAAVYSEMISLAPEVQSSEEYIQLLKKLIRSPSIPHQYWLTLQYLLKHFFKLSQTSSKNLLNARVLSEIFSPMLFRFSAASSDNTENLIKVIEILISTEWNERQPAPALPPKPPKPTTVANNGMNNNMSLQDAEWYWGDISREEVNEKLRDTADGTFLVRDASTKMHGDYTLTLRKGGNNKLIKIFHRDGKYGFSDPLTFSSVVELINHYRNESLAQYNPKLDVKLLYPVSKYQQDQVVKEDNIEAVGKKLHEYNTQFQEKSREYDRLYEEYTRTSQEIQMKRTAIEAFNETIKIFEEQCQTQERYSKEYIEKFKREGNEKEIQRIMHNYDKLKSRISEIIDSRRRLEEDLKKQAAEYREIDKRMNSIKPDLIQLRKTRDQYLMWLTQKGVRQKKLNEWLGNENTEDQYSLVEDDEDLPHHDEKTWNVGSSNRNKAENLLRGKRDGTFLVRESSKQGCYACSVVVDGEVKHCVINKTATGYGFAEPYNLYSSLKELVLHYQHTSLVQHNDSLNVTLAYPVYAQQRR
PI3Kα, sequence (P42336 whole entry): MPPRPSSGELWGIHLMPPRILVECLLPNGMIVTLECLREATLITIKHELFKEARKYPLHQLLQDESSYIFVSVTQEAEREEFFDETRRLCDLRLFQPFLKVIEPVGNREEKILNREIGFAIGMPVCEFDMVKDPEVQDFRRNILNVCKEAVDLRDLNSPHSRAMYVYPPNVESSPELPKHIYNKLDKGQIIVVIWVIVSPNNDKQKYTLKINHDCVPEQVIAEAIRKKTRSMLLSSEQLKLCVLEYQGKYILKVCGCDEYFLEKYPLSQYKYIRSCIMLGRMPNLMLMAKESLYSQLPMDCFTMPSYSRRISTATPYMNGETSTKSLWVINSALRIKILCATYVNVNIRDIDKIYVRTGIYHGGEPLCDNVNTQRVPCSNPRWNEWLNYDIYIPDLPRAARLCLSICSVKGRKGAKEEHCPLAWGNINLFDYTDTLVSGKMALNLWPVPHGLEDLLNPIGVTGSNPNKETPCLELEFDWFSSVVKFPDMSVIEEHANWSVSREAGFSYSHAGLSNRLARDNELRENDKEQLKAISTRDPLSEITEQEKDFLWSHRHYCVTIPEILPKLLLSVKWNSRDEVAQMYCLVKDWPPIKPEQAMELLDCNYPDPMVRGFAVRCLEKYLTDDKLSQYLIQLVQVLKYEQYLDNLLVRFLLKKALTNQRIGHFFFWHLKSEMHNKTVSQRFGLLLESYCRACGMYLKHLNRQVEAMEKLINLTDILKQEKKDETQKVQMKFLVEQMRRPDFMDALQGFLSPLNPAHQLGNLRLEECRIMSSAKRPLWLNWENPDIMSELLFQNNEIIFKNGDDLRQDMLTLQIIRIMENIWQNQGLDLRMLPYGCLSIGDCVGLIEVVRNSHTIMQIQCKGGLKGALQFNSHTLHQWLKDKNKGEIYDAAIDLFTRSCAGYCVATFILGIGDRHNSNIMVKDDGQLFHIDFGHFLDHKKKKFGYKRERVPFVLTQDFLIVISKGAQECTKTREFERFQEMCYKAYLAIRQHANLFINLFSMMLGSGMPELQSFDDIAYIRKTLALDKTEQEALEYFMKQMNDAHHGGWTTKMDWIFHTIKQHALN
PI3Kα, sequence (P27986 whole entry partner): as the sequence (P27986 whole entry partner) above

Take `COc1ncc(-c2ccc3ncnc(N4CCN(C(=O)/C=C/CF)CC4)c3c2)cc1NS(=O)(=O)c1ccc(F)cc1F` [Example 16, (E)-2,4-difluoro-N-(5-(4-(4-(4-fluorobut-2-enoyl)piperazin-1-yl)quinazolin-6-yl)-2-methoxypyridin-3-yl)benzenesulfonamide]: the IC50 in assay [1] (Table 1) came to 0.00026 µM; in assay [2] (Table 1), 0.0285 µM; in assay [3] (Homo sapiens, NCI-H358, 72 h), 0.0352 µM.
Regarding `C=C(F)C(=O)N1CCN(c2ncnc3ccc(-c4cnc(OC)c(NS(=O)(=O)c5ccc(F)cn5)c4)cc23)CC1` [Example 120, 5-fluoro-N-(5-(4-(4-(2-fluoroacryloyl)piperazin-1-yl)quinazolin-6-yl)-2-methoxypyridin-3-yl)pyridine-2-sulfonamide], the IC50 in assay [1] (Table 2) turned out to be 0.003 µM; in assay [2] (Table 2), 0.0115 µM; in assay [3] (Homo sapiens, NCI-H358, 72 h), 0.0949 µM.
`COc1ncc(-c2ccc3ncnc(N4CCN(C(=O)/C=C/c5ncco5)CC4)c3c2)cc1NS(=O)(=O)c1ccc(F)cc1F` [Example 62, (E)-2,4-difluoro-N-(2-methoxy-5-(4-(4-(3-(oxazol-2-yl)acryloyl)piperazin-1-yl)quinazolin-6-yl)pyridin-3-yl) benzene-sulfonamide]: the IC50 in assay [1] (Table 2) was 0.0118 µM; in assay [2] (Table 2) it was 0.0125 µM; in assay [3] (Homo sapiens, NCI-H358, 72 h), 0.0151 µM.
`COc1ncc(-c2ccc3ncnc(N4CCN(C(=O)/C=C/P(C)(C)=O)CC4)c3c2)cc1NS(=O)(=O)c1ccc(F)cc1F` [Example 76, (E)-N-(5-(4-(4-(3-(dimethylphosphoryl)acryloyl)piperazin-1-yl)quinazolin-6-yl)-2-methoxypyridin-3-yl)-2,4-difluorobenzenesulfonamide]: the IC50 in assay [1] (Table 2) amounted to 0.0075 µM; in assay [2] (Table 2) it was 0.0253 µM; in assay [3] (Homo sapiens, NCI-H358, 72 h), 3.42 µM.
The matching figures for `C=C(F)C(=O)N1CC(N2CCN(c3ncnc4ccc(-c5cnc(OC)c(NS(=O)(=O)c6ccc(F)cc6F)c5)cc34)CC2)C1` [Example 57, 2,4-difluoro-N-(5-(4-(4-(1-(2-fluoroacryloyl)azetidin-3-yl)piperazin-1-yl)quinazolin-6-yl)-2-methoxypyridin-3-yl)benzenesulfon-amide]: 0.0019 µM, 0.0334 µM and 0.0299 µM.
For `C=CC(=O)N1CC2(CCN(c3ncnc4ccc(-c5cnc(OC)c(NS(=O)(=O)c6c(F)cccc6F)c5)cc34)CC2)C1` [Example 50, N-(5-(4-(2-acryloyl-2,7-diazaspiro[3.5]nonan-7-yl)quinazolin-6-yl)-2-methoxypyridin-3-yl)-2,6-difluorobenzene-sulfonamide], the IC50 in assay [1] (Table 2) was determined as 0.00061 µM; in assay [2] (Table 2), 0.0114 µM; in assay [3] (Homo sapiens, NCI-H358, 72 h), 0.0311 µM.
With `CC(=O)/C=C/C(=O)N1CCN(c2ncnc3ccc(-c4cnc(Cl)c(NS(=O)(=O)c5ccc(Cl)s5)c4)cc23)CC1` [Example 36, (E)-5-chloro-N-(2-chloro-5-(4-(4-(4-oxopent-2-enoyl)piperazin-1-yl)quinazolin-6-yl)pyridin-3-yl)thiophene-2-sulfonamide], the IC50 was found to be 0.0215 µM in assay [1] (Table 1); 0.14 µM in assay [2] (Table 1); 0.278 µM in assay [3] (Homo sapiens, NCI-H358, 72 h).
Regarding `C=CC(=O)N1CC2(CCN(c3ncnc4ccc(-c5cnc(OC)c(NS(=O)(=O)c6ccc(F)cc6F)c5)cc34)CC2)C1` [Example 18, N-(5-(4-(2-acryloyl-2,7-diazaspiro[3.5]nonan-7-yl)quinazolin-6-yl)-2-methoxypyridin-3-yl)-2,4-difluorobenzenesulfonamide], the IC50 came out at 0.0012 µM in assay [1] (Table 1); 0.0125 µM in assay [2] (Table 1); 0.0601 µM in assay [3] (Homo sapiens, NCI-H358, 72 h).
`C=C(F)C(=O)N1CCN(c2ncnc3ccc(-c4cnc(OC)c(NS(=O)(=O)c5c(F)cccc5F)c4)cc23)CC1` [Example 43, 2,6-difluoro-N-(5-(4-(4-(2-fluoroacryloyl)piperazin-1-yl)quinazolin-6-yl)-2-methoxypyridin-3-yl) benzenesulfonamide]: the IC50 turned out to be 0.0025 µM in assay [1] (Table 2); 0.0129 µM in assay [2] (Table 2); 0.0279 µM in assay [3] (Homo sapiens, NCI-H358, 72 h).
Regarding `C=CC(=O)N1CC2(CCN(c3ncnc4ccc(-c5cnc(OC)c(NS(=O)(=O)c6ccc(F)cc6F)c5)cc34)C2)C1` [Example 12, N-(5-(4-(2-acryloyl-2,6-diazaspiro[3.4]octan-6-yl)quinazolin-6-yl)-2-methoxypyridin-3-yl)-2,4-difluorobenzenesulfonamide], the IC50 in assay [1] (Table 1) came to 0.0093 µM; in assay [2] (Table 1), 0.0774 µM; in assay [3] (Homo sapiens, NCI-H358, 72 h), 0.0506 µM.
As to `COc1ncc(-c2ccc3ncnc(N4CCN(C(=O)/C=C/C(C)=O)CC4)c3c2)cc1NS(=O)(=O)c1ccc(F)cn1` [Example 118, (E)-5-fluoro-N-(2-methoxy-5-(4-(4-(4-oxopent-2-enoyl)piperazin-1-yl)quinazolin-6-yl)pyridin-3-yl)pyridine-2-sulfonamide], the IC50 in assay [1] (Table 2) amounted to 0.0019 µM; in assay [2] (Table 2) it was 0.0197 µM; in assay [3] (Homo sapiens, NCI-H358, 72 h) it was 0.0792 µM.
Regarding `C=C(F)C(=O)N1CC2(CCN(c3ncnc4ccc(-c5cnc(OC)c(NS(=O)(=O)c6ccc(F)cc6F)c5)cc34)C2)C1` [Example 60, 2,4-difluoro-N-(5-(4-(2-(2-fluoroacryloyl)-2,6-diazaspiro[3.4]octan-6-yl)quinazolin-6-yl)-2-methoxy-pyridin-3-yl) benzene-sulfonamide], the IC50 stood at 0.0039 µM in assay [1] (Table 2); 0.0135 µM in assay [2] (Table 2); 0.0482 µM in assay [3] (Homo sapiens, NCI-H358, 72 h).
For `C=CC(=O)N1CCN(c2nc(C#N)nc3ccc(-c4cnc(OC)c(NS(=O)(=O)c5ccc(F)cc5F)c4)cc23)CC1` [Example 31, N-(5-(4-(4-acryloylpiperazin-1-yl)-2-cyanoquinazolin-6-yl)-2-methoxypyridin-3-yl)-2,4-difluorobenzenesulfonamide], the IC50 amounted to 0.149 µM in assay [1] (Table 1) and 0.336 µM in assay [2] (Table 1).
As for `C=C1CCN(C2CN(c3ncnc4ccc(-c5cnc(OC)c(NS(=O)(=O)c6ccc(F)cc6F)c5)cc34)C2)C1=O` [Example 125], the IC50 in assay [1] (Table 2) stood at 0.005 µM; in assay [2] (Table 2) it was 0.017 µM; in assay [3], 0.0972 µM.
As to `CC(=O)/C=C/C(=O)N1CCN(c2ncnc3ccc(-c4cncc(NS(=O)(=O)c5ccc(F)cc5F)c4)cc23)CC1` [Example 28, (E)-2,4-difluoro-N-(5-(4-(4-(4-oxopent-2-enoyl)piperazin-1-yl)quinazolin-6-yl)pyridin-3-yl)benzenesulfonamide], the IC50 came out at 0.0018 µM in assay [1] (Table 1) and 0.0497 µM in assay [2] (Table 1).
In the case of `CNc1ncc(-c2ccc3ncnc(N4CCN(C(=O)/C=C/C(C)=O)CC4)c3c2)cc1NS(=O)(=O)c1ccc(F)cc1F` [Example 105, (E)-2,4-difluoro-N-(2-(methylamino)-5-(4-(4-(4-oxopent-2-enoyl)piperazin-1-yl)quinazolin-6-yl)pyridin-3-yl)benzenesulfonamide], the IC50 was determined as 0.0086 µM in assay [1] (Table 2) and 0.0385 µM in assay [2] (Table 2).
For the compound `C=CC(=O)N1CCN(c2ncnc3ccc(-c4cnc(OC)c(NS(=O)(=O)c5ccc(F)cn5)c4)cc23)CC1` [Example 119, N-(5-(4-(4-acryloylpiperazin-1-yl)quinazolin-6-yl)-2-methoxypyridin-3-yl)-5-fluoropyridine-2-sulfonamide], the IC50 came to 0.0028 µM in assay [1] (Table 2); 0.0118 µM in assay [2] (Table 2); 0.0679 µM in assay [3] (Homo sapiens, NCI-H358, 72 h).
As to `C=CC(=O)N1CCN(c2ncnc3ccc(-c4cnc(OC)c(N(C)S(=O)(=O)c5c(F)cccc5F)c4)cc23)CC1` [Example 82, N-(5-(4-(4-acryloylpiperazin-1-yl)quinazolin-6-yl)-2-methoxypyridin-3-yl)-2,6-difluoro-N-methylbenzenesulfonamide], the IC50 in assay [1] (Table 2) is 0.0899 µM; in assay [2] (Table 2), 0.0756 µM.
Regarding `C=C(F)C(=O)N1CCN(c2ncnc3ccc(-c4cnc(OC5CCCC5)c(NS(=O)(=O)c5ccc(F)cc5F)c4)cc23)CC1` [Example 108, N-(2-(cyclopentyloxy)-5-(4-(4-(2-fluoroacryloyl)piperazin-1-yl)quinazolin-6-yl)pyridin-3-yl)-2,4-difluorobenzenesulfonamide], the results for the IC50 in assay [1] (Table 2) and in assay [2] (Table 2) were 0.161 µM and 0.268 µM, respectively.
As to `C=CC(=O)N1CCN(c2ncnc3ccc(-c4cnc(OC)c(NS(=O)(=O)c5ccc(Cl)s5)c4)cc23)CC1` [Example 37, N-(5-(4-(4-acryloylpiperazin-1-yl)quinazolin-6-yl)-2-methoxypyridin-3-yl)-5-chlorothiophene-2-sulfonamide], the IC50 in assay [1] (Table 1) was determined as 0.0013 µM; in assay [2] (Table 1) it was 0.0201 µM.
As for `C=CC(=O)N1CCN(c2ncnc3ccc(-c4cnc(OC)c(NCc5ccc(F)cc5F)c4)cc23)CC1` [Example 126, 1-(4-(6-(5-((2,4-difluorobenzyl)amino)-6-methoxypyridin-3-yl)quinazolin-4-yl)piperazin-1-yl)prop-2-en-1-one], the IC50 in assay [1] (Table 2) is 0.131 µM; in assay [2] (Table 2), 0.0527 µM.
